The results in this text go back to patent publication US6368793B1, “Metabolic selection methods” (MicroGenomics, Inc., priority 1998, dated 2002).

SMILES strings stand for the structures.

What all share (type): cell-based
The test system of assay [1] is Klebsielia oxytoca. The experiment in a line: Compound utilization of environmental isolates (growth on minimal medium). The conditions noted are these: Kelbsiella oxytoca isolate. As for the experimental part:
Samples from diverse natural environments were collected to use for the isolation of microbes that can utilize ascorbic acid (AsA) as the sole carbon source. No bacterial species has previously been reported to grow on AsA minimal medium.
Environmental samples were collected from freshwater lakes, lemon and orange orchards, residential backyard soils, human and animal solid wastes.
Over 100 microbial isolates, capable of forming visible colonies within 20 hours of incubation at 30° C. on M9 minimal medium containing 0.5% AsA, were selected from these samples. These 100 isolates were then screened for their ability to grow on 2-Keto-L-Gulonate (2-KLG) minimal medium.
Thus, Kelbsiella oxytoca was retained as a candidate for genetic engineering of a host strain that can use AsA under controlled conditions for the selection of cloned microbial pathways from 2-KLG to AsA.

For assay [2], the system named is K. oxytoca strain MGK003. In words: Growth of tester strain MGK003 on AsA minimal medium with or without IPTG. From the text: To engineer K. oxytoca as a host strain for the selection of biocatalysts which produce AsA, the promoter of the yiaK-S operon was replaced with a DNA fragment that contained the trp-lac hybrid promoter of transcription, the lacO operator, and the lacI^q repressor gene (Brosius, J. 1992. Meth. Enzymol. 216:469-483). This allows the yiaK-S operon, and therefore AsA catabolism, to be turned ON and OFF in a tightly controlled manner in the presence or absence of IPTG, a non-metabolizable inducer of the lac promoter. Practically, a 5-way ligation was set up among: (i) the pMAK705 integration vector which carries a chloramphenicol resistance marker and the thermosensitive origin of replication from plasmid […] (Hamilton, C. M., et al., 1989. J. Bacteriol. 171:4617-4622); (ii) a 0.8 kb fragment containing the 5′ region of the yiaJ gene and its promoter sequences; (iii) the spectinomycin resistance marker retrieved from Staphylococcus aureus Tn554 (Murphy, E. 1985. Mol. Gen. Genet. 200:33-39) to follow integration events; (iv) the lacI^q-lacO-trc promoter fragment retrieved from pSE380 (InVitrogen, Carlsbad, Calif.); and (v) a 1 kb fragment containing the 5′ end of yiaK, including its ribosome binding site for translation initiation while excluding the promoter sequences of the yiaK-S operon (FIG. 10). […]

The test system of assay [3] is K. oxytoca strain MGK003 cosmid clones. In words: Growth of selected cosmid library clones of MGK003 on 2-KLG with or without IPTG. As to conditions: within 20 h at 37° C. As to the method:
Prior to transfection of K. oxytoca strain MGK003 with the packaging mixture, the tester strain was transformed with plasmid pCB382 expressing the E. coli lamB gene that functions as λ receptor, which appears to be absent or non-functional in most Klebsiella strains (De Vries, G. E., et al., 1984. Proc. Natl. Acad. Sci. USA 81:6080-6084). The resulting MGK003 [λ^s] strain was transfected with the packaged products as follows:
6. The remainder was centrifuged at 3000 g for 5 min and was resuspended in 1 mL of M9 minimal medium supplemented with 10 μM IPTG (IPTG concentration can be varied up to 100 μM), and aliquots (200 μL) were plated on M9 plates containing 0.5% 2-KLG and 50 μM IPTG. 7.
Plates were incubated at 37° C. for 36 h for selecting candidate pathways that would convert 2-KLG to AsA. (Alternatively, selection can be done at 30° C.)
Among 500,000 clones to which a first selection round was applied, approximately 100 colonies of various sizes appeared on 2-KLG/IPTG plates. These were re-streaked on: (i) LB-kanamycin to verify the presence of the cosmid vector; (ii) 2-KLG/IPTG; and (iii) 2-KLG lacking IPTG to determine if growth of the positive clones on 2-KLG was dependent upon the expression of AsA catabolism. […]

`O=C1O[C@H]([C@@H](O)CO)C(O)=C1O` [AsA, ascorbic acid]: the “Utilization as sole source of carbon and energy / growth” value in assay [1] was “could utilize AsA as its sole source of carbon and energy”. In addition, the “Growth on M9 minimal medium” value in assay [2] (MGK003, AsA 0.25% and IPTG 10 to 100 μM) is recorded as “able to grow”; in assay [2] (MGK003, AsA 0.25%, lacking IPTG), “no growth”.
As for `O=C(O)C(=O)[C@@H](O)[C@H](O)[C@@H](O)CO` [2-KLG, 2-keto-L-gulonate], the “Utilization as sole source of carbon and energy / growth” value in assay [1] is on record as “could not grow on 2-KLG”. Moreover, the entries for the “Growth of two retained clones” value in assay [3] (2-KLG without IPTG) and in assay [3] (2-KLG/IPTG) were “not on 2-KLG without IPTG” and “grew”, respectively.
